Reference: patent publication US20240270715A1, “INHIBITORS OF TRANSGLUTAMINASES” (ZEDIRA GMBH, priority 2021, published 2024)

Assays:
[1] = Caco-2 permeability assay (CacoReady kit); assay type: in vitro ADME; settings: human
Description: Permeability coefficients (Papp values) were obtained from Caco-2 barrier studies predicting oral/intestinal bioavailability of the tested compounds. The assays were performed by using CacoReady™ ready-to-use kits from ReadyCell according to the manufacturers protocol.

[2] = Log D by shake flask method (octanol / PBS pH 7.4, HPLC); assay type: physicochemical; settings: octanol / PBS pH 7.4, shake flask; read-out: logD
Description: In order to classify the inventive compounds according to their lipophilicity, Log D values (distribution coefficient) were determined by means of the well-established shake flask method, measuring the partition of a compound between an octanol and phosphate-buffered saline (PBS, pH 7.4) by HPLC.
Compounds with a moderate lipophilicity (Log D values from 0 to 3) are usually advantaged for oral absorption, being in balance between solubility and permeability. However, sophisticated formulation of a compound might improve oral bioavailability for highly lipophilic compounds.

[3] = target: T1, recombinant human transglutaminase 2 (Homo sapiens, UniProt P21980); assay: Transglutaminase assay: incorporation of dansylcadaverine into dimethylcasein (DCC-assay); assay type: biochemical; settings: recombinant human TG2 10 nM, dansylcadaverine/dimethylcasein; read-out: IC50 TG2
T1 sequence (P21980 1-687): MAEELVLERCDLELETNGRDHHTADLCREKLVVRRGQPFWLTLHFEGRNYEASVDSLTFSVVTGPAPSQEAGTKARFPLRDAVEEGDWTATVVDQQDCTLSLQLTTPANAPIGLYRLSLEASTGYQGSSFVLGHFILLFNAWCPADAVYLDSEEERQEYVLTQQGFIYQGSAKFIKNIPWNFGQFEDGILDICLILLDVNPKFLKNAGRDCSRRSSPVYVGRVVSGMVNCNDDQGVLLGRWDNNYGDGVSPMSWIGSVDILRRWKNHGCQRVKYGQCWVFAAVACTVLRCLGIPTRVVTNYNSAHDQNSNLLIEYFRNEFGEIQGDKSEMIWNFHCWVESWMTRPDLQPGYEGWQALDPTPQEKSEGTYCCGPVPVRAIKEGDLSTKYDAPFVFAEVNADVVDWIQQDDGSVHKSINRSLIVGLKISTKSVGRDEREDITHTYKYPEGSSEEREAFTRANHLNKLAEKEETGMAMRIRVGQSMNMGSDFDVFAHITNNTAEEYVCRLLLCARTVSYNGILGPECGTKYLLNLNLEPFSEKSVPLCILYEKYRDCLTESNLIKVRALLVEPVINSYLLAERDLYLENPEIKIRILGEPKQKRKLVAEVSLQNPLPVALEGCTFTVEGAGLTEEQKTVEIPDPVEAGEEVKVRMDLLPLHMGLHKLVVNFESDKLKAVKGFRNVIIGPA
Description: To illustrate the advantage of branched alkyl moieties over aromatic moieties, we refer to reference compounds Ref. 2 (ZED1227, U.S. Pat. No. 9,434,763 B2) and Ref. 3 (A8, ZED1047). Inhibition data were determined using the classical fluorescent transamidation assay (dansylcadaverine incorporation into methylated casein, DCC-assay) as described [Büchold, C.; Hils, M.; Gerlach, U.; Weber, J.; Pelzer, C.; Heil, A.; Aeschlimann, D.; Pasternack, R. Features of ZED1227: The First-In-Class Tissue Transglutaminase Inhibitor Undergoing Clinical Evaluation for the Treatment of Celiac Disease. Cells 2022, 11, 1667. https://doi.org/10.3390/cells11101667]. Casein is one of the best known high molecular weight (24 kDa) protein substrates for transglutaminases. Please note, the IC50 value of Ref. 3 (A8) published in U.S. Pat. No. 9,434,763 B2 cannot be compared to the present data, relying on a fluorogenic isopeptidase assay.
To this extent, inhibition data were determined using the classical fluorescent transamidation assay (dansylcadaverine incorporation into methylated casein, DCC-assay) as described in Büchold et al. [Büchold, C.; Hils, M.; Gerlach, U.; Weber, J.; Pelzer, C.; Heil, A.; Aeschlimann, D.; Pasternack, R. Features of ZED1227: The First-In-Class Tissue Transglutaminase Inhibitor Undergoing Clinical Evaluation for the Treatment of Celiac Disease. Cells 2022, 11, 1667. https://doi.org/10.3390/cells11101667]. Casein is one of the best known high molecular weight (24 kDa) protein substrates for transglutaminases. Inhibition data of the inventive compounds was compared with inhibition of compounds disclosed in U.S. Pat. No. 9,434,763 B2, particularly, compound A8, which is denoted herein as Reference 3. It is noteworthy that the IC50 values of compounds A8 published in U.S. Pat. No. 9,434,763 B2 and E16 from U.S. Pat. No. 11,072,634 B2 cannot be compared to the present data, relying on a fluorogenic isopeptidase assay.
For the determination of potency of inhibitors against tissue transglutaminase, the incorporation of dansylcadaverine into dimethylcasein (Zedira product T036, Lorand et al., Anal Biochem, 1971, 44:221-31) was measured using recombinant human transglutaminase 2 (Zedira Product T022).
The tissue transglutaminase is diluted in buffer (50 mM Tris-HCl, 7.5 mM CaCl2, 150 mM NaCl, pH=7.4). The final concentration of TG2 in the assay is 10 nM.
A 10 mM inhibitor stock solution is prepared in DMSO, and from this a serial 1:2-fold dilution series is prepared also in DMSO. Each of the initial dilutions is subsequently diluted 1:50-fold with buffer (50 mM Tris-HCl, 7.5 mM CaCl2, 150 mM NaCl, pH=7.4) to yield the final working dilutions containing 2% (v/v) DMSO. 15 μl of inhibitor working dilution are added per well of a 96 well microtiter plate. As control, 15 μl of a 2% (v/v) DMSO solution prepared using the buffer mentioned above are added per well.
Immediately before starting the assay, 600 μl transglutaminase working solution are added to 11.4 ml assay buffer (50 mM Tris-HCl, 10 mM CaCl2, 10 mM glutathione, 2.5% glycerol, 16.7 μM dansylcadaverine, 4 μM N,N-dimethylcasein, 200 mM NaCl, pH=8.0). 285 μl of this reaction mix are added per well containing the inhibitor.
Increase in fluorescence is measured using λex=330 nm and λemG=500 nm at […] for 30 min. A slope of the increase in fluorescence between 20 and 30 min is calculated for determination of the IC50 value (inhibitor concentration at which 50% of the initial activity is blocked).
Analysis of enzymatic activity is performed by calculation of the slope of an increase in fluorescence intensity. IC50 values are calculated by plotting the enzymatic activity (as percentage from control containing 2% DMSO instead of inhibitor) against the inhibitor concentration. IC50 is defined as the inhibitor concentration blocking 50% of initial enzyme activity.

Compound | Papp [1] | logD [2] | IC50 [3]
CCNC(=O)C(=O)CC[C@H](NC(=O)c1cn(C)cn1)C(=O)Nc1cccn(CC(=O)NC23CC4CC(CC(CC)(C4)C2)C3)c1=O [Compound I-15, (S)-N1-ethyl-N6-(1-(2-(3-ethyladamantane-1-amino)-2-oxoethyl)-2-oxo-1,2-dihydropyridin-3-yl)-5-(1-methyl-1H-imidazole-4-carboxamido)-2-oxohexanediamide] | < 1 ×10⁻⁶ cm/s | 1 to 3 | 600 to 3500 nM
CCNC(=O)C(=O)CC[C@H](NC(=O)c1cc2cccnc2nc1C)C(=O)Nc1cccn(CC(=O)NC23CC(C2)C3)c1=O [Compound I-103, (S)-N1-(1-(2-(bicyclo[1.1.1]pentan-1-ylamino)-2-oxoethyl)-2-oxo-1,2-dihydropyridin-3-yl)-N6-ethyl-2-(2-methyl-1,8-naphthyridine-3-carboxamido)-5-oxohexanediamide] | < 1 ×10⁻⁶ cm/s | < 1 | 600 to 3500 nM
CCNC(=O)C(=O)CC[C@H](NC(=O)c1cncn1C)C(=O)Nc1cccn(CC(=O)NC23CC4CC(CC(O)(C4)C2)C3)c1=O [Compound I-7, (S)-N1-ethyl-N6-(1-(2-(3-hydroxyadamantane-1-amino)-2-oxoethyl)-2-oxo-1,2-dihydropyridin-3-yl)-5-(1-methyl-1H-imidazole-5-carboxamido)-2-oxohexanediamide] | < 1 ×10⁻⁶ cm/s | < 1 | 600 to 3500 nM
CCNC(=O)C(=O)CC[C@H](NC(=O)[C@@H]1CCCCN1)C(=O)Nc1cccn(CC(=O)NC2C3CC4CC2CC(Cl)(C4)C3)c1=O (stereo partly drawn) [Compound I-60, (S)-N1-ethyl-N6-(1-(2-(5-chloroadamantane-2-amino)-2-oxoethyl)-2-oxo-1,2-dihydropyridin-3-yl)-2-oxo-5-((S)-piperidine-2-carboxamido)hexanediamide] | < 1 ×10⁻⁶ cm/s | 1 to 3 | 150 to 600 nM
CCNC(=O)C(=O)CC[C@H](NC(=O)c1nc2ccccc2s1)C(=O)Nc1cccn(CC(=O)N[C@@H]2C[C@@H]3CC[C@H]2C3)c1=O [Compound I-97, (S)-2-(benzo[d]thiazole-2-carboxamido)-N1-(1-(2-((1S,2R,4R)-bicyclo[2.2.1]heptan-2-ylamino)-2-oxoethyl)-2-oxo-1,2-dihydropyridin-3-yl)-N6-ethyl-5-oxohexanediamide] | 1 to 10 ×10⁻⁶ cm/s | 1 to 3 | 150 to 600 nM
CCNC(=O)C(=O)CC[C@H](NC(=O)c1cnc(Cl)n1C)C(=O)Nc1cccn(CC(=O)NC23CC4CC(C)(CC(C)(C4)C2)C3)c1=O [Compound I-26, (S)-2-(2-chloro-1-methyl-1H-imidazole-5-carboxamido)-N6-ethyl-N1-(1-(2-(3,5-dimethyladamantane-1-amino)-2-oxoethyl)-2-oxo-1,2-dihydropyridin-3-yl)-5-oxohexanediamide] | < 1 ×10⁻⁶ cm/s | 1 to 3 | 150 to 600 nM
CCNC(=O)C(=O)CC[C@H](NC(=O)c1cccnc1)C(=O)Nc1cccn(CC(=O)NCCc2ccccc2)c1=O [Ref. 4, reference compound] | < 1 ×10⁻⁶ cm/s | < 1 | 3500 to 10000 nM
CCNC(=O)C(=O)CC[C@H](NC(=O)c1cc(Br)sc1Br)C(=O)Nc1cccn(CC(=O)NC2C3CC4CC(C3)CC2C4)c1=O (stereo partly drawn) [Compound I-47, (S)-2-(2,5-dibromothiophene-3-carboxamido)-N6-ethyl-N1-(1-(2-(2-adamantylamino)-2-oxoethyl)-2-oxo-1,2-dihydropyridin-3-yl)-5-oxohexanediamide] | 1 to 10 ×10⁻⁶ cm/s | 3 to 5 | < 150 nM
CCNC(=O)C(=O)CC[C@H](NC(=O)c1cc(Cl)c(Cl)s1)C(=O)Nc1cccn(CC(=O)NC2C3CC4CC(C3)CC2C4)c1=O (stereo partly drawn) [Compound I-54, (S)-2-(4,5-dichlorothiophene-2-carboxamido)-N6-ethyl-N1-(1-(2-(2-adamantylamino)-2-oxoethyl)-2-oxo-1,2-dihydropyridin-3-yl)-5-oxohexanediamide] | 1 to 10 ×10⁻⁶ cm/s | 3 to 5 | < 150 nM

The next lines start with the values.

Papp [1] | logD [2] | IC50 [3] | Compound
1 to 10 ×10⁻⁶ cm/s | 3 to 5 | < 150 nM | CCNC(=O)C(=O)CC[C@H](NC(=O)c1oc2ccccc2c1Cl)C(=O)Nc1cccn(CC(=O)NC2C3CC4CC(C3)CC2C4)c1=O (stereo partly drawn) [Compound I-32, (S)-2-(3-chlorobenzofuran-2-carboxamido)-N6-ethyl-N1-(1-(2-(2-adamantylamino)-2-oxoethyl)-2-oxo-1,2-dihydropyridin-3-yl)-5-oxohexanediamide]
1 to 10 ×10⁻⁶ cm/s | < 1 | < 150 nM | CCNC(=O)C(=O)CC[C@H](NC(=O)c1cnc(C(C)C)o1)C(=O)Nc1cccn(CC(=O)NC23CCC(C2)C3)c1=O [Compound I-90, (S)-N1-(1-(2-(bicyclo[2.1.1]hexan-1-ylamino)-2-oxoethyl)-2-oxo-1,2-dihydropyridin-3-yl)-N6-ethyl-2-(2-isopropyloxazole-5-carboxamido)-5-oxohexanediamide]
1 to 10 ×10⁻⁶ cm/s | 1 to 3 | < 150 nM | CCNC(=O)C(=O)CC[C@H](NC(=O)c1cc(C)oc1C)C(=O)Nc1cccn(CC(=O)NC2C3CC4CC(C3)CC2C4)c1=O (stereo partly drawn) [Compound I-49, (S)-2-(2,5-dimethylfuran-3-carboxamido)-N6-ethyl-N1-(1-(2-(2-adamantylamino)-2-oxoethyl)-2-oxo-1,2-dihydropyridin-3-yl)-5-oxohexanediamide]
1 to 10 ×10⁻⁶ cm/s | 1 to 3 | < 150 nM | CCNC(=O)C(=O)CC[C@H](NC(=O)c1cncc([N+](=O)[O-])c1)C(=O)Nc1cccn(CC(=O)NCC23CC4CC(CC(C4)C2)C3)c1=O [Compound I-65, (S)-N1-(1-(2-(1-adamantylmethylamino)-2-oxoethyl)-2-oxo-1,2-dihydropyridin-3-yl)-N6-ethyl-2-(5-nitronicotinamido)-5-oxohexanediamide]
